From paper PMC7070898 (Clinical and Translational Science, 2019)

Assay: Safety and tolerability
[1] = MAD 25 mg once daily 14 days, n = 9
[2] = MAD 75 mg once daily 14 days, n = 9
[3] = MAD 200 mg once daily 14 days, n = 9

C=CC(=O)N1CCC(CNc2ncnc(N)c2-c2ccc(Oc3ccccc3)cc2)CC1 [evobrutinib]
TEAE: Abdominal discomfort [1]: 1 (11.1) (1) n (%), (number of events)
TEAE: Abdominal pain [1]: 0 (0.0) n (%), (number of events)
TEAE: Application site irritation [1]: 0 (0.0) n (%), (number of events)
TEAE: Complex regional pain [1]: 1 (11.1) (1) n (%), (number of events)
TEAE: Constipation [1]: 0 (0.0) n (%), (number of events)
TEAE: Dry throat [1]: 0 (0.0) n (%), (number of events)
TEAE: Excoriation [1]: 1 (11.1) (1) n (%), (number of events)
TEAE: Fatigue [1]: 0 (0.0) n (%), (number of events)
TEAE: Headache [1]: 1 (11.1) (1) n (%), (number of events)
TEAE: Muscle spasms [1]: 0 (0.0) n (%), (number of events)
TEAE: Muscle strain [1]: 1 (11.1) (1) n (%), (number of events)
TEAE: Nausea [1]: 0 (0.0) n (%), (number of events)
TEAE: Overall total [1]: 3 (33.3) (6) n (%), (number of events)
TEAE: Rhinorrhea [1]: 1 (11.1) (1) n (%), (number of events)
TEAE: Sneezing [1]: 0 (0.0) n (%), (number of events)
TEAE: Toothache [1]: 0 (0.0) n (%), (number of events)
TEAE: URTI [1]: 0 (0.0) n (%), (number of events)
TEAE: Abdominal discomfort [2]: 0 (0.0) n (%), (number of events)
TEAE: Abdominal pain [2]: 1 (11.1) (2) n (%), (number of events)
TEAE: Application site irritation [2]: 1 (11.1) (1) n (%), (number of events)
TEAE: Complex regional pain [2]: 0 (0.0) n (%), (number of events)
TEAE: Constipation [2]: 1 (11.1) (1) n (%), (number of events)
TEAE: Dry throat [2]: 1 (11.1) (1) n (%), (number of events)
TEAE: Excoriation [2]: 0 (0.0) n (%), (number of events)
TEAE: Fatigue [2]: 2 (22.2) (2) n (%), (number of events)
TEAE: Headache [2]: 2 (22.2) (2) n (%), (number of events)
TEAE: Muscle spasms [2]: 1 (11.1) (1) n (%), (number of events)
TEAE: Muscle strain [2]: 0 (0.0) n (%), (number of events)
TEAE: Nausea [2]: 1 (11.1) (2) n (%), (number of events)
TEAE: Overall total [2]: 7 (77.8) (14) n (%), (number of events)
TEAE: Rhinorrhea [2]: 0 (0.0) n (%), (number of events)
TEAE: Sneezing [2]: 1 (11.1) (1) n (%), (number of events)
TEAE: Toothache [2]: 0 (0.0) n (%), (number of events)
TEAE: URTI [2]: 1 (11.1) (1) n (%), (number of events)
TEAE: Abdominal discomfort [3]: 0 (0.0) n (%), (number of events)
TEAE: Abdominal pain [3]: 0 (0.0) n (%), (number of events)
TEAE: Application site irritation [3]: 1 (11.1) (1) n (%), (number of events)
TEAE: Complex regional pain [3]: 0 (0.0) n (%), (number of events)
TEAE: Constipation [3]: 0 (0.0) n (%), (number of events)
TEAE: Dry throat [3]: 0 (0.0) n (%), (number of events)
TEAE: Excoriation [3]: 0 (0.0) n (%), (number of events)
TEAE: Fatigue [3]: 0 (0.0) n (%), (number of events)
TEAE: Headache [3]: 0 (0.0) n (%), (number of events)
TEAE: Muscle spasms [3]: 0 (0.0) n (%), (number of events)
TEAE: Muscle strain [3]: 0 (0.0) n (%), (number of events)
TEAE: Nausea [3]: 0 (0.0) n (%), (number of events)
TEAE: Overall total [3]: 3 (33.3) (3) n (%), (number of events)
TEAE: Rhinorrhea [3]: 0 (0.0) n (%), (number of events)
TEAE: Sneezing [3]: 0 (0.0) n (%), (number of events)
TEAE: Toothache [3]: 1 (11.1) (1) n (%), (number of events)
TEAE: URTI [3]: 1 (11.1) (1) n (%), (number of events)
TEAE: Abdominal discomfort (MAD pooled active, n = 27): 1 (3.7) (1) n (%), (number of events)
TEAE: Abdominal pain (MAD pooled active, n = 27): 1 (3.7) (2) n (%), (number of events)
TEAE: Application site irritation (MAD pooled active, n = 27): 2 (7.4) (2) n (%), (number of events)
TEAE: Complex regional pain (MAD pooled active, n = 27): 1 (3.7) (1) n (%), (number of events)
TEAE: Constipation (MAD pooled active, n = 27): 1 (3.7) (1) n (%), (number of events)
TEAE: Dry throat (MAD pooled active, n = 27): 1 (3.7) (1) n (%), (number of events)
TEAE: Excoriation (MAD pooled active, n = 27): 1 (3.7) (1) n (%), (number of events)
TEAE: Fatigue (MAD pooled active, n = 27): 2 (7.4) (2) n (%), (number of events)
TEAE: Headache (MAD pooled active, n = 27): 3 (11.1) (3) n (%), (number of events)
TEAE: Muscle spasms (MAD pooled active, n = 27): 1 (3.7) (1) n (%), (number of events)
TEAE: Muscle strain (MAD pooled active, n = 27): 1 (3.7) (1) n (%), (number of events)
TEAE: Nausea (MAD pooled active, n = 27): 1 (3.7) (2) n (%), (number of events)
TEAE: Overall total (MAD pooled active, n = 27): 13 (48.1) (23) n (%), (number of events)
TEAE: Rhinorrhea (MAD pooled active, n = 27): 1 (3.7) (1) n (%), (number of events)
TEAE: Sneezing (MAD pooled active, n = 27): 1 (3.7) (1) n (%), (number of events)
TEAE: Toothache (MAD pooled active, n = 27): 1 (3.7) (1) n (%), (number of events)
TEAE: URTI (MAD pooled active, n = 27): 2 (7.4) (2) n (%), (number of events)
TEAE: Abdominal pain (SAD 25 mg, n = 6): 0 (0.0) n (%), (number of events)
TEAE: Amylase increased (SAD 25 mg, n = 6): 0 (0.0) n (%), (number of events)
TEAE: Application site pruritus (due to ECG stickers) (SAD 25 mg, n = 6): 0 (0.0) n (%), (number of events)
TEAE: Back pain (SAD 25 mg, n = 6): 0 (0.0) n (%), (number of events)
TEAE: Contact dermatitis (SAD 25 mg, n = 6): 0 (0.0) n (%), (number of events)
TEAE: Dizziness (SAD 25 mg, n = 6): 0 (0.0) n (%), (number of events)
TEAE: Dry eye (SAD 25 mg, n = 6): 0 (0.0) n (%), (number of events)
TEAE: Dry mouth (SAD 25 mg, n = 6): 0 (0.0) n (%), (number of events)
TEAE: Dyspepsia (SAD 25 mg, n = 6): 0 (0.0) n (%), (number of events)
TEAE: Excoriation (SAD 25 mg, n = 6): 0 (0.0) n (%), (number of events)
TEAE: Headache (SAD 25 mg, n = 6): 0 (0.0) n (%), (number of events)
TEAE: Lipase increased (SAD 25 mg, n = 6): 0 (0.0) n (%), (number of events)
TEAE: Multiple injuries (SAD 25 mg, n = 6): 0 (0.0) n (%), (number of events)
TEAE: Nasal congestion (SAD 25 mg, n = 6): 0 (0.0) n (%), (number of events)
TEAE: Noncardiac chest pain (SAD 25 mg, n = 6): 0 (0.0) n (%), (number of events)
TEAE: Odynophagia (SAD 25 mg, n = 6): 0 (0.0) n (%), (number of events)
TEAE: Overall total (SAD 25 mg, n = 6): 0 (0.0) n (%), (number of events)
TEAE: URTI (SAD 25 mg, n = 6): 0 (0.0) n (%), (number of events)
TEAE: Abdominal pain (SAD 50 mg, n = 6): 0 (0.0) n (%), (number of events)
TEAE: Amylase increased (SAD 50 mg, n = 6): 0 (0.0) n (%), (number of events)
TEAE: Application site pruritus (due to ECG stickers) (SAD 50 mg, n = 6): 0 (0.0) n (%), (number of events)
TEAE: Back pain (SAD 50 mg, n = 6): 1 (16.7) (1) n (%), (number of events)
TEAE: Contact dermatitis (SAD 50 mg, n = 6): 2 (33.3) (2) n (%), (number of events)
TEAE: Dizziness (SAD 50 mg, n = 6): 0 (0.0) n (%), (number of events)
TEAE: Dry eye (SAD 50 mg, n = 6): 0 (0.0) n (%), (number of events)
TEAE: Dry mouth (SAD 50 mg, n = 6): 0 (0.0) n (%), (number of events)
TEAE: Dyspepsia (SAD 50 mg, n = 6): 1 (16.7) (1) n (%), (number of events)
TEAE: Excoriation (SAD 50 mg, n = 6): 0 (0.0) n (%), (number of events)
TEAE: Headache (SAD 50 mg, n = 6): 1 (16.7) (2) n (%), (number of events)
TEAE: Lipase increased (SAD 50 mg, n = 6): 0 (0.0) n (%), (number of events)
TEAE: Multiple injuries (SAD 50 mg, n = 6): 0 (0.0) n (%), (number of events)
TEAE: Nasal congestion (SAD 50 mg, n = 6): 0 (0.0) n (%), (number of events)
TEAE: Noncardiac chest pain (SAD 50 mg, n = 6): 0 (0.0) n (%), (number of events)
TEAE: Odynophagia (SAD 50 mg, n = 6): 0 (0.0) n (%), (number of events)
TEAE: Overall total (SAD 50 mg, n = 6): 3 (50.0) (6) n (%), (number of events)
TEAE: URTI (SAD 50 mg, n = 6): 0 (0.0) n (%), (number of events)
